From ChEMBL document CHEMBL4321798, “Old but Gold: Tracking the New Guise of Histone Deacetylase 6 (HDAC6) Enzyme as a Biomarker and Therapeutic Target in Rare Diseases” (J Med Chem, 2020)
pIC50: −log10 of the molar value.

What was measured:
[1] = Inhibition of maize HD2; design: species or system Zea mays
[2] = target: Histone deacetylase 1 (Homo sapiens, UniProt Q13547); test: Inhibition of HADC1 (unknown origin)
[3] = Inhibition of maize HD1-A; design: species or system Zea mays
[4] = target: T1, Protein deacetylase HDAC6 (Homo sapiens, UniProt Q9UBN7); test: Inhibition of HADC6 (unknown origin)
T1 sequence (Q9UBN7 whole entry): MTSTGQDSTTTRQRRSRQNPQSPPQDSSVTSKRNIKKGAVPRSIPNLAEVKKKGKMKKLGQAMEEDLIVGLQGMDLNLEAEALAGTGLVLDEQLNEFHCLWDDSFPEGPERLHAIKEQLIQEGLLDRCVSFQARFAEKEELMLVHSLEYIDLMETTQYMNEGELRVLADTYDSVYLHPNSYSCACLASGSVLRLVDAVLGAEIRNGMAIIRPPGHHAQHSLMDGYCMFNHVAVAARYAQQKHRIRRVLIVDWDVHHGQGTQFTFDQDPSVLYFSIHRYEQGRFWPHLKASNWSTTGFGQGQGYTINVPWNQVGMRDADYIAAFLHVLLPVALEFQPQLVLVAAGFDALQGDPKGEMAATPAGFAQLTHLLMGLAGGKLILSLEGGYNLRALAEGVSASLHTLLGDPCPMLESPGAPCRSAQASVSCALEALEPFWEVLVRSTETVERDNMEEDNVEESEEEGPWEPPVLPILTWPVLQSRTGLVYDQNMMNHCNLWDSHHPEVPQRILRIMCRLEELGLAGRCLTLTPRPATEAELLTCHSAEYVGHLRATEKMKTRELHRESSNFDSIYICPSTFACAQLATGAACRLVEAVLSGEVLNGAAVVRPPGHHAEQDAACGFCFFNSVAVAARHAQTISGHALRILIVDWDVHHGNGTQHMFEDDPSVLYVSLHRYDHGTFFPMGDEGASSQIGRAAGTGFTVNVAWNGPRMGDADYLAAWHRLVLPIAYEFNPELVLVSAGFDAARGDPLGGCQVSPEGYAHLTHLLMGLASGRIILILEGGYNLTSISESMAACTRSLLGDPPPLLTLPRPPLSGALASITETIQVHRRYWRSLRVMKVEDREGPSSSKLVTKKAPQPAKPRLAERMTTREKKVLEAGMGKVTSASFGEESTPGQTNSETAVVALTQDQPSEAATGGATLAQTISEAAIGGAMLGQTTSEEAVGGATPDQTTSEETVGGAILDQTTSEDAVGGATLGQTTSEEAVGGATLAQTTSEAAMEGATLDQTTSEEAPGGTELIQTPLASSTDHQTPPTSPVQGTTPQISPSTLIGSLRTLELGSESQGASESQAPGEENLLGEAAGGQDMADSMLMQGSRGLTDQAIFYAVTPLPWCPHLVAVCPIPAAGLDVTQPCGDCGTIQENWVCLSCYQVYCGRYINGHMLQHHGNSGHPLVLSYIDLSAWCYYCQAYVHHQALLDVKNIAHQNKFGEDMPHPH

Histone deacetylase 1, sequence (Q13547 whole entry): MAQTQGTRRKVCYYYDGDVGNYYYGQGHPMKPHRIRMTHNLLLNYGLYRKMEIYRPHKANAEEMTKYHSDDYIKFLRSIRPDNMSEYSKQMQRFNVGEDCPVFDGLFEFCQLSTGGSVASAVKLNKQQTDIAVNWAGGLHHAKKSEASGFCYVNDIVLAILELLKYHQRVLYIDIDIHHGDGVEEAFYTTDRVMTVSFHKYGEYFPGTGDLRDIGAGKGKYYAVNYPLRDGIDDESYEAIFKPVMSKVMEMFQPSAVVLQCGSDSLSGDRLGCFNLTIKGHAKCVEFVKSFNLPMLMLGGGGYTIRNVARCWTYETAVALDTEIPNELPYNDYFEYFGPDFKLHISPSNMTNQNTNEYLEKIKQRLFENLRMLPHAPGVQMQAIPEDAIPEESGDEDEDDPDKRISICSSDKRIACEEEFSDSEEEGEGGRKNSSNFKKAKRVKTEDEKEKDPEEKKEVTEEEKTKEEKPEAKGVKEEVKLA

Row | SMILES | pIC50 [1] | pIC50 [2] | pIC50 [3] | pIC50 [4]
1 | CN(C)c1ccc(C(=O)NCCCCCCC(=O)NO)cc1 | 7.00 | – | – | –
2 | CCCC(CCC)C(=O)O [VALPROIC ACID] | – | 4.40 | – | –
3 | Cn1cc(/C=C/C(=O)c2cccc(F)c2)cc1/C=C/C(=O)NO | – | – | 7.00 | –
4 | CC(C)[C@H]1NC(=O)[C@H]2CSSCC/C=C/[C@H](CC(=O)N[C@H](C)C(=O)N2)OC(=O)C[C@@H]1O [OBP-801] | – | 8.48 | – | 5.80
5 | Cc1nc2ccccc2n1Cc1ccc(C(=O)NO)cc1F | – | 5.36 | – | 8.52
